The text below walks through data of patent US5919897A (priority 1995, dated 1999).

Assay [1] deals with T1, μ receptor (Homo sapiens, UniProt P35372).
T1 construct: An adenylyl cyclase assay using human SH-SY5Y neuroblastoma cell line membranes; endogenous in cells; host or cells: human SH-SY5Y neuroblastoma cells, differentiated with retinoic acid; membranes
In words: Adenylyl cyclase assay using human SH-SY5Y neuroblastoma cell line membranes. The assay is classed as biochemical.

Assay [2] has as its system MU RECEPTOR
In words: Mu receptor agonist or antagonist activity, by either the adenylyl cyclase assay or the GPI assay (Table 13).

Where no end group is shown, it is not given here. [ ]: non-standard residue; d: D form.

T1 sequence (P35372 whole entry): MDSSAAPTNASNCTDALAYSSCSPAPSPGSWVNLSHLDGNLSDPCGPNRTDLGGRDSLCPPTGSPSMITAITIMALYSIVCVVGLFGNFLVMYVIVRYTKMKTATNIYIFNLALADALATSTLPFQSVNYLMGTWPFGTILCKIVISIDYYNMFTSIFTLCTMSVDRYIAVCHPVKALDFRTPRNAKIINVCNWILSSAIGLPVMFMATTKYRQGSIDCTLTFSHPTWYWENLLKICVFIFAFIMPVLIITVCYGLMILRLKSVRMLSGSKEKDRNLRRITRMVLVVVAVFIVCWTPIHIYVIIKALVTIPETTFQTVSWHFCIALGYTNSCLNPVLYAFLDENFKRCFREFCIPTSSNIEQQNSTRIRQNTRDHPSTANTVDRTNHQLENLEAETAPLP

As to `C[C@@H](NC(=O)[C@@H](N)Cc1ccc(O)cc1)C(=O)NCC(=O)N(C)[C@@H](Cc1ccccc1)C(=O)NCCO` [DAMGO, [D-Ala^2,MePhe^4, Gly-ol^5]enkephalin], the “% Basal Control (cyclic AMP)” value was determined as 61 ± 5% in assay [1] (DAMGO 1 μM alone, ANTAGONISTS section) and 34 ± 6% in assay [1] (agonist alone, 100 μM, SH-SY5Y membranes). For the same compound, the “% Basal Control +ICI 174,864” value in assay [1] (DAMGO 1 μM, ANTAGONISTS section) came to 95 ± 3%; in assay [1] (agonist 100 μM plus ICI 174,864 (antagonists 500 μM)) it was 28 ± 3%. Further, in assay [1] (agonist 100 μM plus naloxone (antagonists 500 μM)), the “% Basal Control +Naloxone” value worked out at 77 ± 8%.

Take “[dI][dM][dT][dW]G[dP]-NH2 [SEQ ID NO. 130]”: in assay [2], the “AGONIST OR ANTAGONIST” value was “Agonist”.
